In ChEMBL document CHEMBL1125902, “2-aralkoxyadenosines: potent and selective agonists at the coronary artery A2 adenosine receptor” (J Med Chem, 1991):
pEC50: −log10 of the molar value.

Columns and labels:
Adenosine receptor A1 [1] = target: T1, Adenosine receptor A1 (Cavia porcellus, UniProt P47745); assay: Effective concentration required for prolongation of the stimulus-QRS interval by 50% of the maximum response at the Adenosine A1 receptor in langendorff guinea pig heart preparation; format: functional
T1 sequence (P47745 whole entry): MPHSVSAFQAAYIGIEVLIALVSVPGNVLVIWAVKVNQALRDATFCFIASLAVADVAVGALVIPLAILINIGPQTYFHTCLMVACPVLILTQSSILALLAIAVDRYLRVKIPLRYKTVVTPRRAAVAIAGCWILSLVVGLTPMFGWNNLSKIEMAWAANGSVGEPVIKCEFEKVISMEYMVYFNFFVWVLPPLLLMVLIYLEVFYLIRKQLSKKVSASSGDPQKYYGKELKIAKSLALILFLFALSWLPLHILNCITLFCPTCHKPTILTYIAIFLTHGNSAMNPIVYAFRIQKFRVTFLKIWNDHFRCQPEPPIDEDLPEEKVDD

Adenosine A2 receptor [2] = target: T2, Adenosine A2 receptor (Homo sapiens, UniProt P29275+P29274)
Description: Concentration required for coronary arteries vasodilation at the Adenosine A2 receptor in langendorff guinea pig heart preparation

Adenosine receptor A1 [3] = target: T1, Adenosine receptor A1; assay: Effective concentration required for prolongation of the stimulus-QRS interval by 50% of the maximum response at the A1 adenosine receptor in langendorff guinea pig heart preparation; format: functional
Adenosine A2 receptor [4] = target: T2, Adenosine A2 receptor; remark: listed apart in the source
Description: Concentration required for coronary arteries vasodilation at the A2 adenosine receptor in langendorff guinea pig heart preparation

Row | SMILES | pEC50 (Adenosine receptor A1 [1]) | -Log EC50 (Adenosine A2 receptor [2]) | pEC50 (Adenosine receptor A1 [3]) | -Log EC50 (Adenosine A2 receptor [4])
1 | Nc1nc(OCCc2ccc3ccccc3c2)nc2c1ncn2C1O[C@@H](CO)[C@H](O)[C@@H]1O (stereo partly drawn) | 4.94 | 9.3 | – | –
2 | Nc1nc(OCc2ccccc2)nc2c1ncn2C1O[C@@H](CO)[C@H](O)[C@@H]1O (stereo partly drawn) | 5.20 | 6.38 | – | –
3 | Nc1nc(OCCCc2ccccc2)nc2c1ncn2[C@H]1O[C@@H](CO)[C@H](O)[C@@H]1O | – | – | 4.70 | 7.21
4 | Nc1nc(OCCc2ccc(F)cc2)nc2c1ncn2C1O[C@@H](CO)[C@H](O)[C@@H]1O (stereo partly drawn) | – | – | 4.59 | 9.06
5 | COc1cc(CCOc2nc(N)c3ncn(C4O[C@@H](CO)[C@H](O)[C@@H]4O)c3n2)cc(OC)c1OC (stereo partly drawn) | 4.33 | 7.66 | – | –
6 | COc1ccc(CCOc2nc(N)c3ncn(C4O[C@@H](CO)[C@H](O)[C@@H]4O)c3n2)cc1 (stereo partly drawn) | – | – | 4.71 | 8.85
7 | COc1ccccc1CCOc1nc(N)c2ncn(C3O[C@@H](CO)[C@H](O)[C@@H]3O)c2n1 (stereo partly drawn) | 4.45 | 7.5 | – | –
8 | Nc1nc(OCCc2ccccc2F)nc2c1ncn2C1O[C@@H](CO)[C@H](O)[C@@H]1O (stereo partly drawn) | – | – | 4.45 | 8.58
9 | Nc1nc(OCCCCc2ccccc2)nc2c1ncn2C1O[C@@H](CO)[C@H](O)[C@@H]1O (stereo partly drawn) | – | – | 5.15 | 8.02
10 | Nc1nc(OCCc2cccc(F)c2)nc2c1ncn2C1O[C@@H](CO)[C@H](O)[C@@H]1O (stereo partly drawn) | – | – | 4.46 | 8.72
11 | Nc1nc(OCCc2cccc3ccccc23)nc2c1ncn2C1O[C@@H](CO)[C@H](O)[C@@H]1O (stereo partly drawn) | – | – | 5.08 | –
12 | Nc1nc(OCCc2cccc(Cl)c2)nc2c1ncn2C1O[C@@H](CO)[C@H](O)[C@@H]1O (stereo partly drawn) | 4.79 | 8.52 | – | –
13 | Nc1nc(OCCc2ccccc2)nc2c1ncn2C1O[C@@H](CO)[C@H](O)[C@@H]1O (stereo partly drawn) | – | – | 4.70 | 8.55
14 | Nc1nc(OCCc2c[nH]c3ccccc23)nc2c1ncn2C1O[C@@H](CO)[C@H](O)[C@@H]1O (stereo partly drawn) | – | – | 4.85 | 8.01
15 | COc1cccc(CCOc2nc(N)c3ncn(C4O[C@@H](CO)[C@H](O)[C@@H]4O)c3n2)c1 (stereo partly drawn) | 4.79 | 8.59 | – | –
16 | COc1ccc(CCOc2nc(N)c3ncn(C4O[C@@H](CO)[C@H](O)[C@@H]4O)c3n2)cc1OC (stereo partly drawn) | 4.37 | 8.31 | – | –
17 | Nc1nc(Oc2ccccc2)nc2c1ncn2C1O[C@@H](CO)[C@H](O)[C@@H]1O (stereo partly drawn) | – | – | 4.33 | 6.38
18 | Nc1nc(OCCc2ccsc2)nc2c1ncn2C1O[C@@H](CO)[C@H](O)[C@@H]1O (stereo partly drawn) | 4.73 | […] | – | –
19 | Cc1ccccc1CCOc1nc(N)c2ncn(C3O[C@@H](CO)[C@H](O)[C@@H]3O)c2n1 (stereo partly drawn) | 4.60 | 8.42 | – | –
20 | Nc1nc(OCCCCCc2ccccc2)nc2c1ncn2C1O[C@@H](CO)[C@H](O)[C@@H]1O (stereo partly drawn) | – | – | 5.34 | 8.2
21 | Nc1nc(OCCc2cccs2)nc2c1ncn2C1O[C@@H](CO)[C@H](O)[C@@H]1O (stereo partly drawn) | 4.93 | 8.43 | – | –
22 | Cc1cccc(CCOc2nc(N)c3ncn(C4O[C@@H](CO)[C@H](O)[C@@H]4O)c3n2)c1 (stereo partly drawn) | 4.89 | 8.8 | – | –
23 | Cc1ccc(CCOc2nc(N)c3ncn(C4O[C@@H](CO)[C@H](O)[C@@H]4O)c3n2)cc1 (stereo partly drawn) | 5.13 | 9.72 | – | –
24 | Nc1nc(OCCc2ccccc2Cl)nc2c1ncn2C1O[C@@H](CO)[C@H](O)[C@@H]1O (stereo partly drawn) | – | – | 4.66 | 8.26
25 | Nc1nc(OCCc2ccc(Cl)cc2)nc2c1ncn2[C@H]1O[C@@H](CO)[C@H](O)[C@@H]1O | 4.84 | – | – | –
